Data taken from publication PMC8541575, “Optimization and Development of Selective Histone Deacetylase Inhibitor (MPT0B291)-Loaded Albumin Nanoparticles for Anticancer Therapy” (Pharmaceutics, 2021).

Tests used:
[1] = In vitro drug release by dialysis bag; type: physicochemical; details: 0.25 mg/mL in propylene glycol, pH 7.4 phosphate buffer with 1% Tween 80, 37 °C
Protocol: The dialysis bag was subsequently placed into 25 mL of release medium (PBS) containing 1% v/v Tween 80. The temperature was maintained at 37.0 ± 0.5 °C, and the medium was stirred at a speed of 100 rpm. MPT0B291 which had been dissolved in propylene glycol (free MPT0B291; 0.25 mg/mL) was used as a control and was treated in the same manner. During a period of 48 h, the surrounding environment was maintained by replacing 2 mL of the release medium with an equal volume of fresh medium at regular intervals. The extraction solution was solubilized in 500 μL of acetonitrile and assayed by HPLC.

MIA PaCa-2 cells = experiment: Cell viability (MTT) assay; type: cell-based; details: Homo sapiens, 24 h of exposure, read-out: 50% inhibitory concentration (IC50)
Protocol: Briefly, MIA PaCa-2 cells were seeded (5 × 10^3 cells/well) in 96-well culture plates. After 24 h of incubation in a humidified incubator at 37 °C with 5% CO2, the medium of adherent cells was replaced with serum-free culture medium and incubated with 200 μL of serial dilutions of HSA-NPs (0.01~1000 μg/mL) and MPT0B291-HSAX NPs ([…]). After another 24 h, 100 µL of MTT (500 μg/mL in PBS, pH 7.4) was added and incubated at 37 °C for 2 h. The medium was then removed, and 100 µL of DMSO was added to each well to dissolve the crystals. The optical density (OD) was measured at 540 nm using a microplate reader (Cytation™ 3 Cell Imaging Multi-Mode Reader, BioTek, Winooski, VT, USA). The cell survival rate was calculated as follows:(3) Cell survival rate (%)=Absorbance value of test solution group /Absorbance value of blank solution group ×100%

[2] = system: healthy Balb/c female mice; experiment: Maximum tolerated dose, single i.v. dose; type: in vivo
Protocol: The single-dose study was conducted using healthy female mice with four animals per group.

[3] = In vivo pharmacokinetic study after intravenous administration; details: male, Sprague-Dawley, rat, plasma, rats, i.v., 5 mg/kg body weight, mean ± SD (n = 4)
Protocol: Male Sprague-Dawley rats (250 ± 15 g) were divided into two groups (with four rats per group). […] All collected blood samples were centrifuged at 4000 rpm and 4 °C for 10 min, and supernatant plasma samples were obtained and frozen at -80 °C for further analysis. Quantitative analysis of MPT0B291 in rat plasma by an ultra-precision liquid chromatographic tandem mass spectroscopic (UPLC-MS/MS) method was performed using an Agilent 1290 Infinity II LC System (Agilent, Wilmington, DE, USA) coupled with an Agilent 6470 triple quadrupole LC/MS system (Agilent Technologies, Santa Clara, CA, USA). Optimized chromatographic separation of MPT0B291 was conducted with an ACQUITY UPLC BEH C18 column (1.7 μm, 2.1 × 100 mm; Waters, Milford, MA, USA) at an oven temperature of 40 °C. The mobile phase was 0.1% (v/v) formic acid in water (mobile phase A) and acetonitrile containing 0.1% (v/v) formic acid (mobile phase B) with gradient elution at a flow rate of 0.3 mL/min. All analytical procedures were evaluated with positive electrospray ionization (ESI). The LC gradient was programmed in linear steps as follows: 0~0.5 min, 5% mobile phase B (v/v); 0.5~1 min, 5% mobile phase B to 100% mobile phase B (v/v); 1~2.8 min, 100% mobile phase B; 2.8~3 min, 100% mobile phase B to 5% mobile phase B (v/v); and 3~4 min, 5% mobile phase B (v/v). Quantification was achieved using the multiple reaction monitoring (MRM) mode at m/z 344.1 → 91.0 for MPT0B291. The following PK parameters were determined: the area under the concentration-time curve (AUC), maximum peak concentration (Cmax), time of maximum peak concentration (Tmax), and mean residence time (MRT). These parameters were determined by DAS software vers. 2.0. All data are presented as mean ± standard deviation (SD).

**Q.** For `O=C(/C=C/c1cccc(S(=O)(=O)n2ccc3cccnc32)c1)NO` [MPT0B291], which “Drug released within 1 h” value [1] is on record?
**A.** 60%

**Q.** What about the “Drug released within 8 h” value [1] of the same molecule?
**A.** ~100%

**Q.** What about the IC50 (MIA PaCa-2 cells) of the same molecule?
**A.** 4.71 µM

**Q.** And the “Mortality after single i.v. dose of 150 mg/kg BW” value ([2]; n = 4)?
**A.** one mouse was found dead after 24 h and another one also died on the following day

**Q.** What about the “Maximum tolerated dose (MTD)” value ([2]; single dose, i.v. route) of the same molecule?
**A.** approximately 75 mg/kg BW

**Q.** What about the AUC(0-inf) [3] of the same molecule?
**A.** 293 ± 39.2 ng·h/mL

**Q.** And the AUC(0-t) ([3]; read-out: AUC0–24h)?
**A.** 291 ± 39.7 ng·h/mL

**Q.** What about the clearance ([3]; read-out: CL (clearance)) of the same molecule?
**A.** 288 ± 36.7 mL/min/kg

**Q.** And the MRT ([3]; read-out: MRT (mean residence time))?
**A.** 1.86 ± 0.66 h

**Q.** And the Vd ([3]; read-out: Vss (volume of distribution at steady state))?
**A.** 32.6 ± 12.3 L/kg

**Q.** What about the half-life ([3]; read-out: t1/2 (elimination half-life) (converted)) of the same molecule?
**A.** 124 ± 38.4 min
